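How tested: cells in 96-well plates exposed to compound for 48 hours at five concentrations. GI50 = concentration required for 50% inhibition of growth.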 Active and inactive are the calls of the source. Rule as the data show it: active = GI50 up to about 1.1 µM and inactive = higher.
How the values were obtained:
Assay in all cases: NCI anticancer screen, dose series, 48 h
IGROV-1 = tested on: IGROV-1
T47D = tested on: T47D
A549 = tested on: A549
NCI/ADR-RES = tested on: NCI/ADR-RES
SF-268 = tested on: SF-268
NCI-H460 = tested on: NCI-H460
SNB-75 = tested on: SNB-75
CCRF-CEM = tested on: CCRF-CEM
RXF 393 = tested on: RXF 393
MDA-MB-435 = tested on: MDA-MB-435
NCI-H226 = tested on: NCI-H226
HOP-62 = tested on: HOP-62
OVCAR-3 = tested on: OVCAR-3
Malme-3M = tested on: Malme-3M
MDA-N = tested on: MDA-N
786-0 = tested on: 786-0
MDA-MB-231 = tested on: MDA-MB-231
NCI-H23 = tested on: NCI-H23
TK-10 = tested on: TK-10
MOLT-4 = tested on: MOLT-4

Measured: GI50

O=c1cc(N2CCCC2)[nH]c(=O)n1-c1ccc(Cl)cc1
inactive: IGROV-1 > 100 µM | T47D > 100 µM | A549 > 100 µM | NCI/ADR-RES > 100 µM | SF-268 > 100 µM | NCI-H460 > 100 µM | SNB-75 > 100 µM | CCRF-CEM > 100 µM | RXF 393 > 100 µM | MDA-MB-435 > 100 µM | NCI-H226 > 100 µM | HOP-62 > 100 µM | OVCAR-3 > 100 µM | Malme-3M > 100 µM | MDA-N > 100 µM | 786-0 > 100 µM | MDA-MB-231 > 100 µM | NCI-H23 > 100 µM | TK-10 > 100 µM | MOLT-4 > 100 µM

COc1cc2cc(C(=O)N3C[C@H](CCl)c4c3cc(N)c3ccccc43)[nH]c2c(OC)c1OC
inactive: A549 1.3 µM | SNB-75 2.19 µM | NCI-H226 9.51 µM | HOP-62 3.05 µM | 786-0 5.11 µM | MDA-MB-231 3.36 µM | MOLT-4 7.82 µM
active: IGROV-1 0.218 µM | T47D < 0.005 µM | NCI/ADR-RES 0.00791 µM | SF-268 0.593 µM | NCI-H460 0.0239 µM | CCRF-CEM 0.051 µM | RXF 393 0.571 µM | MDA-MB-435 0.00577 µM | OVCAR-3 0.555 µM | Malme-3M 0.005 µM | MDA-N < 0.01 µM | NCI-H23 0.005 µM | TK-10 0.005 µM

O=C(O)c1cc(/N=C/c2ccccc2O)cc(C(=O)O)c1
inactive: IGROV-1 > 100 µM | T47D > 100 µM | A549 > 100 µM | NCI/ADR-RES > 100 µM | SF-268 > 100 µM | NCI-H460 > 100 µM | SNB-75 > 100 µM | CCRF-CEM > 100 µM | RXF 393 > 100 µM | MDA-MB-435 > 100 µM | NCI-H226 > 100 µM | HOP-62 > 100 µM | OVCAR-3 15.3 µM | Malme-3M > 100 µM | MDA-N > 100 µM | 786-0 > 100 µM | MDA-MB-231 > 100 µM | NCI-H23 > 100 µM | TK-10 > 100 µM | MOLT-4 86.9 µM

COC(=O)C1(Cc2ccccc2)Cc2ccccc2C1O (stereo not given)
inactive: IGROV-1 > 100 µM | T47D 43.3 µM | A549 87.5 µM | NCI/ADR-RES > 100 µM | SF-268 > 100 µM | NCI-H460 > 100 µM | SNB-75 87.7 µM | CCRF-CEM > 100 µM | RXF 393 50.2 µM | MDA-MB-435 > 100 µM | NCI-H226 > 100 µM | HOP-62 > 100 µM | OVCAR-3 > 100 µM | Malme-3M > 100 µM | MDA-N > 100 µM | 786-0 > 100 µM | MDA-MB-231 > 100 µM | NCI-H23 63 µM | TK-10 95.9 µM | MOLT-4 39.4 µM

c1ccc(COC[C@H]2C3OCC([C@H](OCc4ccccc4)[C@H]3OCc3ccccc3)N2Cc2ccccc2)cc1 (stereo not given in full)
inactive: IGROV-1 43 µM | T47D 13.6 µM | A549 > 54.2 µM | NCI/ADR-RES > 47.8 µM | SF-268 > 54.3 µM | NCI-H460 > 56.4 µM | SNB-75 21.1 µM | CCRF-CEM 27.1 µM | RXF 393 > 100 µM | MDA-MB-435 > 55.2 µM | NCI-H226 17.7 µM | HOP-62 > 55.2 µM | OVCAR-3 17.4 µM | Malme-3M 27.9 µM | MDA-N > 53.2 µM | 786-0 > 50.1 µM | MDA-MB-231 > 49.2 µM | NCI-H23 40.3 µM | TK-10 > 52.6 µM | MOLT-4 6.44 µM

CCCCCNc1nonc1N
inactive: IGROV-1 > 100 µM | T47D > 100 µM | A549 > 100 µM | NCI/ADR-RES > 100 µM | SF-268 > 100 µM | NCI-H460 > 100 µM | SNB-75 > 100 µM | CCRF-CEM > 31.6 µM | RXF 393 > 100 µM | MDA-MB-435 > 100 µM | NCI-H226 > 100 µM | HOP-62 > 100 µM | OVCAR-3 > 100 µM | Malme-3M > 100 µM | MDA-N > 100 µM | 786-0 > 100 µM | MDA-MB-231 > 100 µM | NCI-H23 > 100 µM | TK-10 > 100 µM | MOLT-4 > 100 µM

— ChEMBL document CHEMBL1201862, “PubChem BioAssay data set” (2004)
